In this assay the test system is Swiss mice, Sarcoma 180 sc, mean tumor weight T/C. Description: NCI In Vivo Anticancer Drug Screen. Data for tumor model Sarcoma 180 (subcutaneous) in Swiss mice. To be noted: endpoint: mean tumor weight, higher = larger tumour. The method in brief: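 Transplantable tumors were established in mice, compound was given, then survival or tumor size was recorded. The treated value was divided by the vehicle-control value.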

Where [1] appears, read: dose: 0.5 mg/kg/injection, schedule: Q#A X014 (sc), vehicle: steriod suspending solution.
Where [2] appears, read: dose: 5.0 mg/kg/injection, schedule: Q#A X014 (sc), vehicle: steriod suspending solution.
Where [3] appears, read: dose: 50.0 mg/kg/injection, schedule: Q#A X014 (sc), vehicle: steriod suspending solution.

Where “and” joins values, the source holds several entries; their conditions need not be identical. Identical values can stand only once.

Turning to `COC1C(OC(=O)/C=C/C=C/C=C/C=C/C(=O)O)CCC2(CO2)C1C1(C)OC1CC=C(C)C` (stereo not drawn), the T/C reads like this: (dose: 2.5 mg/kg/injection, schedule: Q#A X014 (ip), vehicle: saline) 70 % of control; (dose: 5.0 mg/kg/injection, schedule: Q#A X014 (ip), vehicle: methylcellulose (MC)) 76 % of control; (dose: 5.0 mg/kg/injection, schedule: Q#A X014 (ip), vehicle: saline) 54 % of control; (dose: 6.0 mg/kg/injection, schedule: Q01DX007 (ip), vehicle: carboxymethylcellulose (CMC)) 62 % of control; (dose: 6.3 mg/kg/injection, schedule: Q01DX007 (ip), vehicle: carboxymethylcellulose (CMC)) 58 % of control; (dose: 10.0 mg/kg/injection, schedule: Q#A X014 (ip), vehicle: methylcellulose (MC)) 50 % of control. Moreover, the T/C runs as follows: (dose: 10.0 mg/kg/injection, schedule: Q#A X014 (ip), vehicle: saline) 58 % of control; (dose: 12.0 mg/kg/injection, schedule: Q01DX007 (ip), vehicle: carboxymethylcellulose (CMC)) 60 % of control; (dose: 12.5 mg/kg/injection, schedule: Q01DX007 (ip), vehicle: carboxymethylcellulose (CMC)) 84 % of control; (dose: 20.0 mg/kg/injection, schedule: Q#A X014 (ip), vehicle: methylcellulose (MC)) 50 % of control; (dose: 20.0 mg/kg/injection, schedule: Q#A X014 (ip), vehicle: saline) 51 % of control; (dose: 25.0 mg/kg/injection, schedule: Q01DX007 (ip), vehicle: carboxymethylcellulose (CMC)) 41 % of control and 53 % of control and 63 % of control. The T/C reads like this: (dose: 40.0 mg/kg/injection, schedule: Q#A X014 (ip), vehicle: methylcellulose (MC)) 38 % of control; (dose: 40.0 mg/kg/injection, schedule: Q#A X014 (ip), vehicle: saline) 39 % of control; (dose: 80.0 mg/kg/injection, schedule: Q#A X014 (ip), vehicle: methylcellulose (MC)) 19 % of control; (dose: 200.0 mg/kg/injection, schedule: Q01DX007 (ip), vehicle: carboxymethylcellulose (CMC)) 17 % of control and 36 % of control.
For the molecule `CCN(CC)CCNc1ccc(C)c2sc3ccccc3c(=O)c12`, the T/C runs as follows: (dose: 4.87 mg/kg/injection, schedule: Q#A X014 (ip), vehicle: carboxymethylcellulose (CMC)) 120 % of control; (dose: 7.5 mg/kg/injection, schedule: Q01DX007 (ip), vehicle: carboxymethylcellulose (CMC)) 93 % of control; (dose: 9.75 mg/kg/injection, schedule: Q01DX007 (ip), vehicle: carboxymethylcellulose (CMC)) 60 % of control; (dose: 9.75 mg/kg/injection, schedule: Q#A X014 (ip), vehicle: carboxymethylcellulose (CMC)) 77 % of control; (dose: 12.5 mg/kg/injection, schedule: Q#A X014 (ip), vehicle: carboxymethylcellulose (CMC)) 85 % of control; (dose: 15.0 mg/kg/injection, schedule: Q01DX007 (ip), vehicle: carboxymethylcellulose (CMC)) 101 % of control. In addition, the T/C reads like this: (dose: 19.5 mg/kg/injection, schedule: Q01DX007 (ip), vehicle: carboxymethylcellulose (CMC)) 72 % of control; (dose: 19.5 mg/kg/injection, schedule: Q#A X014 (ip), vehicle: carboxymethylcellulose (CMC)) 75 % of control; (dose: 25.0 mg/kg/injection, schedule: Q#A X014 (ip), vehicle: carboxymethylcellulose (CMC)) 64 % of control; (dose: 30.0 mg/kg/injection, schedule: Q01DX007 (ip), vehicle: carboxymethylcellulose (CMC)) 106 % of control; (dose: 31.2 mg/kg/injection, schedule: Q01DX007 (ip), vehicle: carboxymethylcellulose (CMC)) 117 % of control; (dose: 39.0 mg/kg/injection, schedule: Q#A X014 (ip), vehicle: carboxymethylcellulose (CMC)) 32 % of control. For the same molecule, the T/C is, setting by setting: (dose: 50.0 mg/kg/injection, schedule: Q#A X014 (ip), vehicle: carboxymethylcellulose (CMC)) 35 % of control; (dose: 52.0 mg/kg/injection, schedule: Q01DX007 (ip), vehicle: carboxymethylcellulose (CMC)) 82 % of control; (dose: 60.0 mg/kg/injection, schedule: Q01DX007 (ip), vehicle: carboxymethylcellulose (CMC)) 55 % of control.
For `CN(C)c1ccc2c(c1)Cc1cc(N=C3C=CC(=O)O3)ccc1-2`, the T/C runs as follows: (dose: 48.0 mg/kg/injection, schedule: Q01DX007 (ip), vehicle: other) 83 % of control; (dose: 73.0 mg/kg/injection, schedule: Q01DX007 (ip), vehicle: other) 101 % of control; (dose: 166.0 mg/kg/injection, schedule: Q01DX007 (ip), vehicle: other) 40 % of control and 65 % of control.
Take `CC(=O)OCC(=O)[C@@]1(O)CC[C@H]2[C@@H]3C[C@H](C)C4=CC(=O)C=C[C@]4(C)[C@@]3(F)[C@@H](O)C[C@@]21C`: the T/C by setting is: (dose: 125.0 mg/kg/injection, schedule: Q01DX007 (sc), vehicle: steriod suspending solution) 41 % of control; (dose: 187.0 mg/kg/injection, schedule: Q01DX007 (sc), vehicle: steriod suspending solution) 30 % of control.
For `C[C@]1(O)CC[C@H]2[C@@H]3CCc4cc(O)ccc4[C@H]3CC[C@@]21C`, the T/C by setting is: under setting [1], 115 % of control; under setting [2], 103 % of control; under setting [3], 74 % of control.
For `COC1=C(N)C(=O)c2nc(-c3nc(C(=O)O)c(C)c(-c4ccc(OC)c(OC)c4O)c3N)ccc2C1=O`, the T/C is, setting by setting: (dose: 0.02 mg/kg/injection, schedule: Q01DX007 (ip), vehicle: water) 66 % of control; (dose: 0.05 mg/kg/injection, schedule: Q01DX007 (ip), vehicle: water) 70 % of control; (dose: 0.05 mg/kg/injection, schedule: Q#A X014 (ip), vehicle: alkali diluted with CMC) 61 % of control; (dose: 0.09 mg/kg/injection, schedule: Q01DX007 (ip), vehicle: other) 37 % of control; (dose: 0.1 mg/kg/injection, schedule: Q01DX007 (ip), vehicle: water) 53 % of control and 54 % of control; (dose: 0.1 mg/kg/injection, schedule: Q#A X014 (ip), vehicle: alkali diluted with CMC) 52 % of control. Moreover, the T/C by setting is: (dose: 0.13 mg/kg/injection, schedule: Q01DX007 (ip), vehicle: other) 83 % of control; (dose: 0.2 mg/kg/injection, schedule: Q01DX007 (ip), vehicle: other) 73 % of control; (dose: 0.2 mg/kg/injection, schedule: Q01DX007 (ip), vehicle: water) 48 % of control; (dose: 0.2 mg/kg/injection, schedule: Q#A X014 (ip), vehicle: alkali diluted with CMC) 65 % of control; (dose: 0.25 mg/kg/injection, schedule: Q01DX007 (ip), vehicle: water) 27 % of control; (dose: 0.3 mg/kg/injection, schedule: Q01DX007 (ip), vehicle: other) 54 % of control.
On to `C=CCOc1ccc2c(c1)CC[C@@H]1[C@@H]2CC[C@@]2(C)[C@H]1CC[C@]2(C)O`, for which the T/C was 80 % of control under setting [1], 116 % of control under setting [2] and 71 % of control under setting [3].
In the case of `CN1CCc2cc3c(cc2C(=O)Cc2ccc4c(c2C1)OCO4)OCO3`, the T/C is 109 % of control (dose: 1.56 mg/kg/injection, schedule: Q01DX007 (ip), vehicle: saline); 69 % of control (dose: 3.13 mg/kg/injection, schedule: Q01DX007 (ip), vehicle: saline); 119 % of control (dose: 6.25 mg/kg/injection, schedule: Q01DX007 (ip), vehicle: saline); 60 % of control (dose: 25.0 mg/kg/injection, schedule: Q01DX007 (ip), vehicle: saline); 64 % of control (dose: 50.0 mg/kg/injection, schedule: Q01DX007 (ip), vehicle: saline); 79 % of control (dose: 62.0 mg/kg/injection, schedule: Q01DX007 (ip), vehicle: carboxymethylcellulose (CMC)). The T/C (dose: 100.0 mg/kg/injection, schedule: Q01DX007 (ip), vehicle: saline) was 80 % of control.
Regarding `CC(C)(C#N)C#N`, the T/C runs as follows: (dose: 125.0 mg/kg/injection, schedule: Q01DX007 (ip), vehicle: saline) 30 % of control; (dose: 187.0 mg/kg/injection, schedule: Q01DX007 (ip), vehicle: saline) 36 % of control; (dose: 375.0 mg/kg/injection, schedule: Q01DX007 (ip), vehicle: saline) 52 % of control and 58 % of control.
For `NNC(=O)c1ccncc1`, the T/C is 112 % of control (dose: 7.5 mg/kg/injection, schedule: Q#A X014 (ip), vehicle: carboxymethylcellulose (CMC)); 105 % of control (dose: 15.0 mg/kg/injection, schedule: Q#A X014 (ip), vehicle: carboxymethylcellulose (CMC)); 101 % of control (dose: 30.0 mg/kg/injection, schedule: Q#A X014 (ip), vehicle: carboxymethylcellulose (CMC)); 74 % of control (dose: 60.0 mg/kg/injection, schedule: Q#A X014 (ip), vehicle: carboxymethylcellulose (CMC)).

The values are drawn from PubChem BioAssay AID342 (DTP/NCI, 2004).
